Source: US20170227553A1, “COMPOSITIONS AND METHODS FOR IDENTIFYING AND TREATING CONDITIONS INVOLVING HSF1 ACTIVITY” (Duke University, priority 2014, published 2017)

Legend:
HD cell models = experiment: HSF1 levels revived with CK2 inhibitors in HD cell models; type: cell-based
[1] = tested on: Htt-Q74 expressing PC12 cells; experiment: Hsp70 immunoblot after CK2 inhibitor pre-treatment, Htt-Q74 induction and heat shock; type: cell-based, rat; conditions: 0.5, 1 and 5 μM for 15 h prior to doxycycline induction; heat shock 42° C. 1 h, 7 h recovery
Method: Then cells were either not treated (−Dox) or treated with doxycycline at 1 microgram/mL during 3 days (+Dox) at 37° C. Cells were then heat shocked at 42° C. (1 h) followed by 7 h recovery (HS) at 37° C. Total protein was analyzed by SDS-PAGE and immunoblotting for Hsp70 and GAPDH. (D) Cells from CK2 kinase inhibitor treatment were analyzed by fluorescence microscopy using GFP as a marker for Htt-Q74 aggregation and the number of cells with inclusions bodies was quantified and normalized with total cell number from DIC images, as a measure of Htt-Q74 protein aggregation. Data are presented as mean±SE from three separate experiments (* P<0.05, ** P<0.01). (E) Htt-Q74 PC12 cells were incubated at 37° C. in a 96-well plate in the presence of either DMSO or the kinase inhibitor TID43 at 5 microMolar final concentration during 15 h prior to Htt-Q74 induction by doxycycline. Cells were then either not treated or treated with doxycycline at 1 microgram/mL for 3 days (+Dox) at 37° C. and then heat shocked at 42° C. (1 h) followed by 7 h recovery (HS) at 37° C. Cell viability was analyzed using the Cell Titer Glo assay (Promega) and values were expressed as percentage of viable cells compared with untreated cells at 37° C. Data are presented as means±SE from three separate experiments (* P<0.05). […]

Row | Structure (SMILES) | HSF1 levels (HD cell models) | HSF1 activation, Hsp70 expression levels (immunoblot) [1]
1 | O=C(O)c1c[nH]c2c(Cl)c(Cl)ccc2c1=O [Cay10577, 7,8-dichloro-1,4-dihydro-4-oxo-3-quinolinecarboxylic acid] | revived | 
2 | Cc1cc(O)c2c(c1)C(=O)c1cc(O)cc(O)c1C2=O [Emodin] |  | rescue HSF1 activation, Hsp70 expression levels
3 | Cn1cc(C2=C(c3ccc(Cl)cc3Cl)C(=O)NC2=O)c2ccccc21 [SB216763] | revived | rescue HSF1 activation, Hsp70 expression levels
4 | Brc1c(Br)c(Br)c2[nH]cnc2c1Br [TBBz] | revived | 
